From patent US11000033B2, “Ketone or oxime compound, and herbicide” (NISSAN CHEMICAL CORPORATION, priority 2014, dated 2021)

Key:
Type in all cases: in vivo
[1] = tested on: Scirpus juncoides; assay: Test Example 2: herbicidal activity, application during weed generation in submerged conditions (symbol B); settings: Table 23; application herbicide amount 320 g/ha; grade 0-5 by criteria of Test Example 1
Outline: (§1)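 Read-out: herbicidal effect on each species rated on a visual scale 3 weeks after treatment. Plants were raised together from seed in flooded alluvial soil (4 cm water) at 25° C. to 30° C. and treated at one to two leaves by water-surface application of diluted emulsion.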

[2] = tested on: Veronica persica; assay: Test Example 5: herbicidal effect by foliage application, plastic box (symbol R); settings: 320 g/ha, 3 weeks after application
Outline: (§2)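 Post-emergence spray; diluvial soil (sterilized), ~1.5 cm seed cover; greenhouse 25–30° C; 14-day-old plants; water-diluted emulsion at predetermined dose; visual score at 3 wk post-treatment.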

[3] = tested on: Apera spica-venti; assay: Test Example 5: herbicidal effect by foliage application, plastic box (symbol L); settings: 320 g/ha, 3 weeks after application
Outline: as §2

[4] = tested on: Amaranthus retroflexus; assay: Test Example 5: herbicidal effect by foliage application, plastic box (symbol N); settings: 320 g/ha, 3 weeks after application
Outline: as §2

[5] = tested on: rapeseed; assay: Test Example 4: effect on crop by soil treatment (symbol g); settings: application herbicide amount 320 g/ha
Outline: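 Crop seed is sown in spots together with several weed species in a box of sterilized diluvial soil. It is covered by about 1.5 cm of soil and kept in a greenhouse held between 25° C. and 30° C.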

[6] = tested on: Monochoria vaginalis; assay: Test Example 2: herbicidal activity, application during weed generation in submerged conditions (symbol C); settings: Table 23; application herbicide amount 320 g/ha; grade 0-5 by criteria of Test Example 1
Outline: as §1

[7] = tested on: Scirpus juncoides; assay: Test Example 1: herbicidal activity, application before weed generation in submerged conditions (symbol B); settings: application herbicide amount 320 g/ha
Outline: (§3)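 Pre-emergence, paddy conditions: emulsifiable formulation diluted in water, dosed onto floodwater (4 cm depth) on sowing day. Alluvial soil; weeds sown mixed; rice transplanted at 2.5-leaf stage. Greenhouse 25–30 °C, 3 wk. Score 0–5 (5 = ≥90% kill, 0 = ≤5%).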

[8] = tested on: Echinochloa crus-galli var. crus-galli; assay: Test Example 4: herbicidal effect by soil treatment (symbol H); settings: application herbicide amount 320 g/ha
Outline: (§4)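 Seeds were sown in sterilized diluvial soil, covered with about 1.5 cm of soil, and the soil surface was sprayed with a water-diluted emulsion of the compound at a predetermined rate. Plants grew in a greenhouse at 25° C. to 30° C.; effects were scored visually 3 weeks after application.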

[9] = tested on: rapeseed; assay: Test Example 5: effect on crop by foliage application, plastic box (symbol g); settings: 320 g/ha, 3 weeks after application
Outline: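 Greenhouse culture at 25° C. to 30° C. followed spot-like sowing into sterilized diluvial soil, with seed covered by roughly 1.5 cm of soil.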

[10] = tested on: Lolium multiflorum Lam.; assay: Test Example 5: herbicidal effect by foliage application, plastic box (symbol K); settings: 320 g/ha, 3 weeks after application
Outline: as §2

[11] = tested on: Setaria viridis; assay: Test Example 5: herbicidal effect by foliage application, plastic box (symbol G); settings: 320 g/ha, 3 weeks after application
Outline: as §2

[12] = tested on: Apera spica-venti; assay: Test Example 4: herbicidal effect by soil treatment (symbol L); settings: application herbicide amount 320 g/ha
Outline: as §4

[13] = tested on: Digitaria ciliaris; assay: Test Example 4: herbicidal effect by soil treatment (symbol F); settings: application herbicide amount 320 g/ha
Outline: as §4

[14] = tested on: Monochoria vaginalis; assay: Test Example 1: herbicidal activity, application before weed generation in submerged conditions (symbol C); settings: application herbicide amount 320 g/ha
Outline: as §3

## CON=C(C)CC1CC(O)=C(c2c(C)cc(-n3cccn3)cc2C)C1=O (stereo not drawn) [6-073]
[1]
  Herbicidal effect grade, B: Scirpus juncoides: 2 (Herbicidal ratio of 20% or higher and lower than 40%)
[2]
  R: Veronica persica, herbicidal effect (criteria of Test Example 1): 3 (Herbicidal ratio of 40% or higher and lower than 70%)
[3]
  L: Apera spica-venti, herbicidal effect (criteria of Test Example 1): 3 (Herbicidal ratio of 40% or higher and lower than 70%)
[4]
  N: Amaranthus retroflexus, herbicidal effect (criteria of Test Example 1): 0 (Herbicidal ratio of 5% or lower (almost no effect))
[5]
  g: rapeseed, effect on crop grade: 3 (Herbicidal ratio of 40% or higher and lower than 70%)
[6]
  Herbicidal effect grade, C: Monochoria vaginalis: 1 (Herbicidal ratio of 5% or higher and lower than 20%)
[7]
  Herbicidal effect grade, B: Scirpus juncoides: 1 (Herbicidal ratio of 5% or higher and lower than 20%)
[8]
  H: Echinochloa crus-galli var. crus-galli, herbicidal effect grade: 5 (Herbicidal ratio of 90% or more (almost completely withered))
[9]
  g: rapeseed, effect on crop (criteria of Test Example 1): 4 (Herbicidal ratio of 70% or higher and lower than 90%)
[10]
  K: Lolium multiflorum Lam., herbicidal effect (criteria of Test Example 1): 5 (Herbicidal ratio of 90% or more (almost completely withered))
[11]
  G: Setaria viridis, herbicidal effect (criteria of Test Example 1): 5 (Herbicidal ratio of 90% or more (almost completely withered))
[12]
  L: Apera spica-venti, herbicidal effect grade: 0 (Herbicidal ratio of 5% or lower (almost no effect))
[13]
  F: Digitaria ciliaris, herbicidal effect grade: 5 (Herbicidal ratio of 90% or more (almost completely withered))
[14]
  Herbicidal effect grade, C: Monochoria vaginalis: 1 (Herbicidal ratio of 5% or higher and lower than 20%)

## CON=C(C)CC1CC(O)=C(c2c(C)cc(-c3ccc(F)cc3)cc2C)C1=O (mixture of isomers) [6-058]
[1]
  Herbicidal effect grade, B: Scirpus juncoides: 5 (Herbicidal ratio of 90% or more (almost completely withered))
[2]
  R: Veronica persica, herbicidal effect (criteria of Test Example 1): 5 (Herbicidal ratio of 90% or more (almost completely withered))
[3]
  L: Apera spica-venti, herbicidal effect (criteria of Test Example 1): 5 (Herbicidal ratio of 90% or more (almost completely withered))
[4]
  N: Amaranthus retroflexus, herbicidal effect (criteria of Test Example 1): 5 (Herbicidal ratio of 90% or more (almost completely withered))
[5]
  g: rapeseed, effect on crop grade: 5 (Herbicidal ratio of 90% or more (almost completely withered))
[6]
  Herbicidal effect grade, C: Monochoria vaginalis: 5 (Herbicidal ratio of 90% or more (almost completely withered))
[7]
  Herbicidal effect grade, B: Scirpus juncoides: 5 (Herbicidal ratio of 90% or more (almost completely withered))
[8]
  H: Echinochloa crus-galli var. crus-galli, herbicidal effect grade: 5 (Herbicidal ratio of 90% or more (almost completely withered))
[9]
  g: rapeseed, effect on crop (criteria of Test Example 1): 5 (Herbicidal ratio of 90% or more (almost completely withered))
[10]
  K: Lolium multiflorum Lam., herbicidal effect (criteria of Test Example 1): 5 (Herbicidal ratio of 90% or more (almost completely withered))
[11]
  G: Setaria viridis, herbicidal effect (criteria of Test Example 1): 5 (Herbicidal ratio of 90% or more (almost completely withered))
[12]
  L: Apera spica-venti, herbicidal effect grade: 5 (Herbicidal ratio of 90% or more (almost completely withered))
[13]
  F: Digitaria ciliaris, herbicidal effect grade: 5 (Herbicidal ratio of 90% or more (almost completely withered))
[14]
  Herbicidal effect grade, C: Monochoria vaginalis: 5 (Herbicidal ratio of 90% or more (almost completely withered))

## CON=C(C)CC1CC(O)=C(c2c(C)cc(OCc3ccncc3)cc2C)C1=O (mixture of isomers) [6-053]
[1]
  Herbicidal effect grade, B: Scirpus juncoides: 1 (Herbicidal ratio of 5% or higher and lower than 20%)
[2]
  R: Veronica persica, herbicidal effect grade: 0 (Herbicidal ratio of 5% or lower (almost no effect))
[3]
  L: Apera spica-venti, herbicidal effect grade: 4 (Herbicidal ratio of 70% or higher and lower than 90%)
[4]
  N: Amaranthus retroflexus, herbicidal effect grade: 0 (Herbicidal ratio of 5% or lower (almost no effect))
[5]
  g: rapeseed, effect on crop grade: 0 (Herbicidal ratio of 5% or lower (almost no effect))
[6]
  Herbicidal effect grade, C: Monochoria vaginalis: 2 (Herbicidal ratio of 20% or higher and lower than 40%)
[7]
  Herbicidal effect grade, B: Scirpus juncoides: 2 (Herbicidal ratio of 20% or higher and lower than 40%)
[8]
  H: Echinochloa crus-galli var. crus-galli, herbicidal effect grade: 2 (Herbicidal ratio of 20% or higher and lower than 40%)
[9]
  g: rapeseed, effect on crop grade: 3 (Herbicidal ratio of 40% or higher and lower than 70%)
[10]
  K: Lolium multiflorum Lam., herbicidal effect grade: 5 (Herbicidal ratio of 90% or more (almost completely withered))
[11]
  G: Setaria viridis, herbicidal effect grade: 5 (Herbicidal ratio of 90% or more (almost completely withered))
[12]
  L: Apera spica-venti, herbicidal effect grade: 0 (Herbicidal ratio of 5% or lower (almost no effect))
[13]
  F: Digitaria ciliaris, herbicidal effect grade: 4 (Herbicidal ratio of 70% or higher and lower than 90%)
[14]
  Herbicidal effect grade, C: Monochoria vaginalis: 1 (Herbicidal ratio of 5% or higher and lower than 20%)

## CCc1cc(Br)cc(C)c1C1=C(O)CC(C(C(C)=O)C(=O)OC)C1=O (stereo not drawn) [7-001]
[1]
  Herbicidal effect grade, B: Scirpus juncoides: 0 (Herbicidal ratio of 5% or lower (almost no effect))
[2]
  R: Veronica persica, herbicidal effect (criteria of Test Example 1): 0 (Herbicidal ratio of 5% or lower (almost no effect))
[3]
  L: Apera spica-venti, herbicidal effect (criteria of Test Example 1): 3 (Herbicidal ratio of 40% or higher and lower than 70%)
[4]
  N: Amaranthus retroflexus, herbicidal effect (criteria of Test Example 1): 0 (Herbicidal ratio of 5% or lower (almost no effect))
[5]
  Effect on crop grade, g: rapeseed: 0 (Herbicidal ratio of 5% or lower (almost no effect))
[6]
  Herbicidal effect grade, C: Monochoria vaginalis: 0 (Herbicidal ratio of 5% or lower (almost no effect))
[7]
  Herbicidal effect grade, B: Scirpus juncoides: 0 (Herbicidal ratio of 5% or lower (almost no effect))
[8]
  Herbicidal effect grade, H: Echinochloa crus-galli var. crus-galli: 4 (Herbicidal ratio of 70% or higher and lower than 90%)
[9]
  g: rapeseed, effect on crop (criteria of Test Example 1): 0 (Herbicidal ratio of 5% or lower (almost no effect))
[10]
  K: Lolium multiflorum Lam., herbicidal effect (criteria of Test Example 1): 5 (Herbicidal ratio of 90% or more (almost completely withered))
[11]
  G: Setaria viridis, herbicidal effect (criteria of Test Example 1): 3 (Herbicidal ratio of 40% or higher and lower than 70%)
[12]
  Herbicidal effect grade, L: Apera spica-venti: 0 (Herbicidal ratio of 5% or lower (almost no effect))
[13]
  Herbicidal effect grade, F: Digitaria ciliaris: 5 (Herbicidal ratio of 90% or more (almost completely withered))
[14]
  Herbicidal effect grade, C: Monochoria vaginalis: 0 (Herbicidal ratio of 5% or lower (almost no effect))

## CC#Cc1cc(C)c(C2=C(O)CC(CC(C)=O)C2=O)c(C)c1 (stereo not drawn) [7-010]
[1]
  Herbicidal effect grade, B: Scirpus juncoides: 5 (Herbicidal ratio of 90% or more (almost completely withered))
[2]
  R: Veronica persica, herbicidal effect (criteria of Test Example 1): 4 (Herbicidal ratio of 70% or higher and lower than 90%)
[3]
  L: Apera spica-venti, herbicidal effect (criteria of Test Example 1): 5 (Herbicidal ratio of 90% or more (almost completely withered))
[4]
  N: Amaranthus retroflexus, herbicidal effect (criteria of Test Example 1): 1 (Herbicidal ratio of 5% or higher and lower than 20%)
[5]
  Effect on crop grade, g: rapeseed: 3 (Herbicidal ratio of 40% or higher and lower than 70%)
[6]
  Herbicidal effect grade, C: Monochoria vaginalis: 1 (Herbicidal ratio of 5% or higher and lower than 20%)
[7]
  Herbicidal effect grade, B: Scirpus juncoides: 5 (Herbicidal ratio of 90% or more (almost completely withered))
[8]
  Herbicidal effect grade, H: Echinochloa crus-galli var. crus-galli: 5 (Herbicidal ratio of 90% or more (almost completely withered))
[9]
  g: rapeseed, effect on crop (criteria of Test Example 1): 4 (Herbicidal ratio of 70% or higher and lower than 90%)
[10]
  K: Lolium multiflorum Lam., herbicidal effect (criteria of Test Example 1): 5 (Herbicidal ratio of 90% or more (almost completely withered))
[11]
  G: Setaria viridis, herbicidal effect (criteria of Test Example 1): 5 (Herbicidal ratio of 90% or more (almost completely withered))
[12]
  Herbicidal effect grade, L: Apera spica-venti: 5 (Herbicidal ratio of 90% or more (almost completely withered))
[13]
  Herbicidal effect grade, F: Digitaria ciliaris: 5 (Herbicidal ratio of 90% or more (almost completely withered))
[14]
  Herbicidal effect grade, C: Monochoria vaginalis: 1 (Herbicidal ratio of 5% or higher and lower than 20%)

## CCc1cc(Br)cc(C)c1C1=C(O)CC(CC(C)=O)C1=O (stereo not drawn) [7-003]
[1]
  Herbicidal effect grade, B: Scirpus juncoides: 0 (Herbicidal ratio of 5% or lower (almost no effect))
[2]
  R: Veronica persica, herbicidal effect (criteria of Test Example 1): 0 (Herbicidal ratio of 5% or lower (almost no effect))
[3]
  L: Apera spica-venti, herbicidal effect (criteria of Test Example 1): 5 (Herbicidal ratio of 90% or more (almost completely withered))
[4]
  N: Amaranthus retroflexus, herbicidal effect (criteria of Test Example 1): 0 (Herbicidal ratio of 5% or lower (almost no effect))
[5]
  Effect on crop grade, g: rapeseed: 0 (Herbicidal ratio of 5% or lower (almost no effect))
[6]
  Herbicidal effect grade, C: Monochoria vaginalis: 0 (Herbicidal ratio of 5% or lower (almost no effect))
[7]
  Herbicidal effect grade, B: Scirpus juncoides: 0 (Herbicidal ratio of 5% or lower (almost no effect))
[8]
  Herbicidal effect grade, H: Echinochloa crus-galli var. crus-galli: 5 (Herbicidal ratio of 90% or more (almost completely withered))
[9]
  g: rapeseed, effect on crop (criteria of Test Example 1): 0 (Herbicidal ratio of 5% or lower (almost no effect))
[10]
  K: Lolium multiflorum Lam., herbicidal effect (criteria of Test Example 1): 5 (Herbicidal ratio of 90% or more (almost completely withered))
[11]
  G: Setaria viridis, herbicidal effect (criteria of Test Example 1): 5 (Herbicidal ratio of 90% or more (almost completely withered))
[12]
  Herbicidal effect grade, L: Apera spica-venti: 5 (Herbicidal ratio of 90% or more (almost completely withered))
[13]
  Herbicidal effect grade, F: Digitaria ciliaris: 5 (Herbicidal ratio of 90% or more (almost completely withered))
[14]
  Herbicidal effect grade, C: Monochoria vaginalis: 0 (Herbicidal ratio of 5% or lower (almost no effect))
